From US12612384B2, “Heterocyclic CYP4A inhibitor compounds and compositions thereof” (MBD CO., LTD., priority 2021, dated 2026)
Read-outs that look alike come from different tables or passages of the source.

Target: T1, CYP4A (Homo sapiens, UniProt Q02928)
T1 construct: purchased; host or cells: bacterial membranes ('bactosome')
T1 sequence (Q02928 5-519): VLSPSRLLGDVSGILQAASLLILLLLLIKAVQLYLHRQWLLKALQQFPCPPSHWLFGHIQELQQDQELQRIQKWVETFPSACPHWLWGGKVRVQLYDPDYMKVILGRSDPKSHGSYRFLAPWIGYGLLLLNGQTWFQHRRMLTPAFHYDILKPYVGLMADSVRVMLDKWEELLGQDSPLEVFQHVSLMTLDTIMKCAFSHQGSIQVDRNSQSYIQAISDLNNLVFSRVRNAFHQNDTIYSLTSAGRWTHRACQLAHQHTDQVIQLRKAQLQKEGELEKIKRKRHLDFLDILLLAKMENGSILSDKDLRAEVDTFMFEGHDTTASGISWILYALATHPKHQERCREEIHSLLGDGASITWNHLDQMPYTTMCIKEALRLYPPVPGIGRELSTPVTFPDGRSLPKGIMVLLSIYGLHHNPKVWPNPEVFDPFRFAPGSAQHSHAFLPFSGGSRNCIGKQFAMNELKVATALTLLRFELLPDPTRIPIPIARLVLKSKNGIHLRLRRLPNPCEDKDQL
Test: CYP4A enzyme assay (luminescence, Luciferin-ME)
Type: biochemical
Details: Compound concentration 5 μM
Summary of the method: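 Compounds (5 μM) were preincubated 15 min at room temperature with CYP4A bactosomes in 100 mM KPO4, 0.1% BSA, 1 mM DTT. Reaction ran 30 min at room temperature after adding 5 mM Luciferin-ME and NADPH regeneration system. Luminescence after 15 min with detection reagent; inhibition judged by comparing well signals.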

[1] = 50%-70%, read-out: % Inhibition 50%-70%
[2] = 70%-90%, read-out: % Inhibition 70%-90%
[3] = Greater than 90%, read-out: % Inhibition Greater than 90%

inhibition at 5 µM [1] [%]	inhibition at 5 µM [2] [%]	Compound	also measured
50 to 70	–	Cc1cc(N2CCN(C(=O)C3CCCN(C(=O)c4ccncc4)C3)CC2)c2ccccc2n1 (stereo not shown) [Example 104, (1-isonicotinoylpiperidin-3-yl)(4-(2-methylquinolin-4-yl)piperazin-1-yl)methanone]	–
–	70 to 90	CC(=O)Nc1ccc(C(=O)N2CCCC(C(=O)N3CCN(c4ccnc5cc(F)ccc45)CC3)C2)cc1 (stereo not shown) [Example 105, N-(4-(3-(4-(7-fluoroquinolin-4-yl)piperazine-1-carbonyl)piperidine-1-carbonyl)phenyl)acetamide]	–
–	70 to 90	O=C(c1ccc(F)cc1)N1CCCC(C(=O)N2CCN(c3ccnc4cc(F)ccc34)CC2)C1 (stereo not shown) [Example 106, (1-(4-fluorobenzoyl)piperidin-3-yl)(4-(7-fluoroquinolin-4-yl)piperazin-1-yl)methanone]	–
–	70 to 90	O=C(c1ccccc1)N1CCCC(C(=O)N2CCN(c3ccnc4cc(F)ccc34)CC2)C1 (stereo not shown) [Example 107, (1-benzoylpiperidin-3-yl)(4-(7-fluoroquinolin-4-yl)piperazin-1-yl)methanone]	–
50 to 70	–	O=C(C1CCCN(C(=O)C2CCCCC2)C1)N1CCN(c2ccnc3cc(F)ccc23)CC1 (stereo not shown) [Example 108, (1-(cyclohexylcarbonyl)piperidin-3-yl)(4-(7-fluoroquinolin-4-yl)piperazin-1-yl)methanone]	–
–	70 to 90	O=C(c1ccncc1)N1CCCC(C(=O)N2CCN(c3ccnc4cc(F)ccc34)CC2)C1 (stereo not shown) [Example 109, (4-(7-fluoroquinolin-4-yl)piperazin-1-yl)(1-isonicotinoylpiperidin-3-yl)methanone]	–
–	70 to 90	COc1ccc(C(=O)N2CCCC(C(=O)N3CCN(c4ccnc5cc(F)ccc45)CC3)C2)cc1 (stereo not shown) [Example 110, (4-(7-fluoroquinolin-4-yl)piperazin-1-yl)(1-(4-methoxybenzoyl)piperidin-3-yl)methanone]	–
–	70 to 90	CC(=O)Nc1ccc(C(=O)N2CCCC(C(=O)N3CCN(c4ccnc5ccccc45)CC3)C2)cc1 (stereo not shown) [Example 111, N-(4-(3-(1-(quinolin-4-yl)piperazine-4-carbonyl)piperidine-1-carbonyl)phenyl)acetamide]	inhibition at 5 µM [3]: > 90%
–	70 to 90	O=C(c1ccc(F)cc1)N1CCCC(C(=O)N2CCN(c3ccnc4ccccc34)CC2)C1 (stereo not shown) [Example 112, (1-(4-fluorophenylcarbonyl)piperidin-3-yl)(4-(quinolin-4-yl)piperazin-1-yl)methanone]	–
50 to 70	–	O=C(c1ccccc1)N1CCCC(C(=O)N2CCN(c3ccnc4ccccc34)CC2)C1 (stereo not shown) [Example 113, (1-benzoylpiperidin-3-yl)(4-(quinolin-4-yl)piperazin-1-yl)methanone]	–
–	–	O=C(C1CCCN(C(=O)C2CCCCC2)C1)N1CCN(c2ccnc3ccccc23)CC1 (stereo not shown) [Example 114, (1-(cyclohexylcarbonyl)piperidin-3-yl)(4-(quinolin-4-yl)piperazin-1-yl)methanone]	inhibition at 5 µM (Less than 50%, read-out: % Inhibition Less than 50%): < 50%
–	70 to 90	O=C(c1ccncc1)N1CCCC(C(=O)N2CCN(c3ccnc4ccccc34)CC2)C1 (stereo not shown) [Example 115, (1-isonicotinoylpiperidin-3-yl)(4-(quinolin-4-yl)piperazin-1-yl)methanone]	–
–	70 to 90	COc1ccc(C(=O)N2CCCC(C(=O)N3CCN(c4ccnc5ccccc45)CC3)C2)cc1 (stereo not shown) [Example 116, (1-(4-methoxyphenylcarbonyl)piperidin-3-yl)(4-(quinolin-4-yl)piperazin-1-yl)methanone]	–
–	70 to 90	O=C(C1CCCN(S(=O)(=O)C2CCCCC2)C1)N1CCN(c2ccnc3cc(F)ccc23)CC1 (stereo not shown) [Example 117, (1-(cyclohexylsulfonyl)piperidin-3-yl)(4-(7-fluoroquinolin-4-yl)piperazin-1-yl)methanone]	–
–	–	Cn1ccnc1S(=O)(=O)N1CCCC(C(=O)N2CCN(c3ccnc4cc(F)ccc34)CC2)C1 (stereo not shown) [Example 118, (4-(7-fluoroquinolin-4-yl)piperazin-1-yl)(1-(1-methyl-1H-imidazol-2-ylsulfonyl)piperidin-3-yl)methanone]	inhibition at 5 µM [3]: > 90%
50 to 70	–	O=C(C1CCCN(S(=O)(=O)C2CC2)C1)N1CCN(c2ccnc3cc(F)ccc23)CC1 (stereo not shown) [Example 119, (1-(cyclopropylsulfonyl)piperidin-3-yl)(4-(7-fluoroquinolin-4-yl)piperazin-1-yl)methanone]	–
–	–	Cn1ccnc1S(=O)(=O)N1CCCC(C(=O)N2CCN(c3ccnc4ccccc34)CC2)C1 (stereo not shown) [Example 120, (1-(1-methyl-1H-imidazol-2-ylsulfonyl)piperidin-3-yl)(4-(quinolin-4-yl)piperazin-1-yl)methanone]	inhibition at 5 µM [3]: > 90%
–	70 to 90	O=C(C1CCCN(S(=O)(=O)C2CCCCC2)C1)N1CCN(c2ccnc3ccccc23)CC1 (stereo not shown) [Example 121, (1-(cyclohexylsulfonyl)piperidin-3-yl)(4-(quinolin-4-yl)piperazin-1-yl)methanone]	–
50 to 70	–	O=C(C1CCCN(S(=O)(=O)C2CC2)C1)N1CCN(c2ccnc3ccccc23)CC1 (stereo not shown) [Example 122, (1-(cyclopropylsulfonyl)piperidin-3-yl)(4-(quinolin-4-yl)piperazin-1-yl)methanone]	–
50 to 70	–	O=C(C1CCCN(S(=O)(=O)c2ccco2)C1)N1CCN(c2ccnc3cc(Cl)ccc23)CC1 (stereo not shown) [Example 123, (4-(7-chloroquinolin-4-yl)piperazin-1-yl)(1-(furan-2-ylsulfonyl)piperidin-3-yl)methanone]	–
–	70 to 90	O=C(C1CCCN(S(=O)(=O)c2ccncc2)C1)N1CCN(c2ccnc3cc(Cl)ccc23)CC1 (stereo not shown) [Example 124, (4-(7-chloroquinolin-4-yl)piperazin-1-yl)(1-(pyridin-4-ylsulfonyl)piperidin-3-yl)methanone]	–
50 to 70	–	Cc1cc(N2CCN(C(=O)C3CCCN(S(=O)(=O)c4cccnc4)C3)CC2)c2ccccc2n1 (stereo not shown) [Example 125, (4-(2-methylquinolin-4-yl)piperazin-1-yl)(1-(pyridin-3-ylsulfonyl)piperidin-3-yl)methanone]	–
50 to 70	–	Cc1cc(N2CCN(C(=O)C3CCCN(S(=O)(=O)c4ccncc4)C3)CC2)c2ccccc2n1 (stereo not shown) [Example 126, (4-(2-methylquinolin-4-yl)piperazin-1-yl)(1-(pyridin-4-ylsulfonyl)piperidin-3-yl)methanone]	–
50 to 70	–	Cc1cc(N2CCN(C(=O)C3CCCN(S(=O)(=O)c4cccs4)C3)CC2)c2ccccc2n1 (stereo not shown) [Example 127, (4-(2-methylquinolin-4-yl)piperazin-1-yl)(1-(thiophen-2-ylsulfonyl)piperidin-3-yl)methanone]	–
50 to 70	–	O=C(C1CCCN(S(=O)(=O)c2ccncc2)C1)N1CCN(c2cc(C(F)(F)F)nc3ccccc23)CC1 (stereo not shown) [Example 128, (1-(pyridin-4-ylsulfonyl)piperidin-3-yl)(4-(2-(trifluoromethyl)quinolin-4-yl)piperazin-1-yl)methanone]	–
50 to 70	–	O=C(C1CCCN(S(=O)(=O)c2cccnc2)C1)N1CCN(c2cc(C(F)(F)F)nc3ccccc23)CC1 (stereo not shown) [Example 129, (1-(pyridin-3-ylsulfonyl)piperidin-3-yl)(4-(2-(trifluoromethyl)quinolin-4-yl)piperazin-1-yl)methanone]	–
50 to 70	–	COC(=O)CCS(=O)(=O)N1CCCC(C(=O)N2CCN(c3ccnc4cc(F)ccc34)CC2)C1 (stereo not shown) [Example 130, methyl 3-((3-(4-(7-fluoroquinolin-4-yl)piperazine-1-carbonyl)piperidin-1-yl)sulfonyl)propanoate]	–
